Reference: US20120022070A1, “Heat Shock Protein 90 Inhibitors, Methods Of Preparing Same, And Methods For Their Use” (EMORY UNIVERSITY, priority 2008, published 2012)
Like-named read-outs stand apart in the source and are kept apart here.

How the values were obtained:
[1] = test system: tumor specific Hsp90 (NCI-N417 cell lysate); test: Hsp90 binding FP competition assay; set-up: species or system human; details: Table 2, GM-cy3B 5 nM
Excerpt: There are several assays that have been developed to identify novel Hsp90 inhibitors based on the interaction of small molecules with recombinant Hsp90 protein, either yeast or human. To measure a therapeutically significant state of Hsp90, an FP assay that uses human cancer cell lysates instead of recombinant protein (Du, Moulick et al. J. Biomol. Screen, 2007, 12, 915-24) was utilized. It probes the interaction of small molecules with tumor-specific Hsp90 and may therefore lead to inhibitors that are not only selective for cancer cells but also specific for a particular malignancy.
The dose-response effect of the compounds was tested in Hsp90 binding FP competition assays to obtain the IC50 of the compounds. The Hsp90 FP competition assay was performed in 384-well black plate using the small-cell lung carcinoma (SCLC) cell line NCI-N417 as a source of tumor specific Hsp90 and the Cy3B-labeled geldanamycin (GM-cy3B) as the FP ligand. The compound was dissolved in DMSO and added at several concentrations to the reaction buffer containing both GM-cy3B (5 nM) and NCI-N417 cell lysate (1 μg/well) in a final volume of 50 μL. Free GM-cy3B (5 nM) and bound GM-cy3B with NCI-N417 cell lysate (5 nM GM-cy3B and 1 μg/well of NCI-N417 cell lysate) were included as controls in each plate. After incubating at room temperature for 2 to 16 hours, the polarization values were measured and expressed as millipolarization (mP) units using Analyst HT plate reader (Molecular Devices). The competitive efficiency of the compounds were expressed as a percentage of control and calculated according to the following equation:
% of control=((mPc−mPf)/(mPb−mPf))×100
where mPc is the recorded mP from compound wells, mPf is the average recorded mP from GM-cy3B-only wells, and mPb is the average recorded mP from wells containing both GM-cy3B and NCI-N417 lysate. IC50 values were determined using a nonlinear regression analysis as implemented in Prism 4.0 (Graphpad Software).

[2] = test system: Her2 protein in SKBr3 breast cancer cells; test: Cell-based Her2 degradation assay by Cytoblot; details: Homo sapiens, SK-BR-3, Table 2, values with asterisk, 24 hours
Description: Cellular Her2 level after compound treatment was also monitored by microtiter-based Her2 degradation assay, Cytoblot assay (Huezo, Vilenchik et al. Chem. Biol., 2003, 10, 629-634). This is a cell-based assay that enables the quantitative analysis of intracellular levels of Her2 protein.
The human breast cancer cell lines SKBr3 were maintained in RPMI1640 medium supplemented with 10% FBS. 3000 cells in 100 μl of growth medium were plated per well in black, clear-bottom microtiter plates (Corning) and allowed to attach for at least 24 hours at 37° C. and 5% CO2. Compounds at different doses or vehicle (DMSO) were carefully added to the wells and incubated for 24 hours. The cells were washed twice with ice-cold Tris buffer saline (TBS) containing 0.1% Tween 20 (TBST) and fixed with ice-cold methanol. After washing with TBST, the plate was incubated at RT for 1 hour with SuperBlock (Pierce 37535) and overnight at 4° C. with the anti-Her-2 antibody (Santa Cruz Biotechnology). The plate was then washed with TBST and incubated at RT for 2 hours with an anti-rabbit HRP-linked antibody (Sigma A0545). The chemiluminescent substrate solution (Pierce 38040) was added and the plate was read 5 minutes later in an Analyst HT plate reader (Molecular Devices). Luminescence readings resulting from compound-treated cells versus untreated cells (vehicle treated) were quantified and plotted against compound concentrations to give the IC50 values (defined as concentration of compound required to degrade 50% of total Her2).

[3] = test system: Her2 protein in MCF-7 breast cancer cells; test: Cell-based Her2 degradation assay by Western Blot; details: Homo sapiens, read-out: IC50, Her2 degradation WB
Excerpt: Addition of Hsp90 inhibitors to cancer cells induces the proteasomal degradation of a subset of proteins involved in signal transduction such as Raf1 kinase, Akt and certain transmembrane tyrosine kinases such as Her2. Thus, Her2 degradation in cells is a functional read-out of Hsp90 inhibition. Correlation between Hsp90 binding and Her2 degradation in cancer cells is indicative of a selective biological effect in these cells via Hsp90.
A Western blot-based assay was used to measure the cellular level of Her2 protein in MCF-7 breast cancer cell lysates collected after 24 hours of compound treatment. […] Then 2×10^5 cells were seeded in 24 well plates in 500 μl PRMI1640 medium and allowed to attach overnight. The compounds were dissolved in DMSO, added to the wells, and incubated for 24 hours. The cells were washed using ice-cold phosphate-buffered saline (PBS) and lysed in 1% NP40 lysis buffer (10 mM HEPES, pH 7.4, 150 mM NaCl, 1% Nonident P-40, 5 mM Pyrophosphate, 5 mM NaF, 2 mM Orthovanadate, 10 ug/ml Aprotinin, 10 ug/ml Leupeptin, 1 mM PMSF). After boiling with 6×SDS sample buffer, the cell lysates were separated by SDS-PAGE and transferred to nitrocellulose membrane. The membranes were blocked with 5% milk in tris-buffered saline buffer.

[4] = test system: SKBR3 breast cancer cells; test: Cancer cell growth inhibition assay (CellTiter-Blue); assay type: cell-based; details: Homo sapiens, SK-BR-3, Table 2, 96 hours
Description: The effects of the compounds on cancer cell growth were determined using the CellTiter-Blue cell viability assay (Promega). CellTiter-Blue® Cell Viability is based on the ability of living cells to convert a redox dye (resazurin) into a fluorescent end product (resorufin).
The SKBR3 breast cancer cells were plated in 384-well microtiter plates (Costar) and allowed to attach overnight. After treatment with either compounds or vehicle (DMSO) for 96 hours, the cells were measured for their viability by CellTiter-Blue. Briefly, 10 μl of CelTiter-Blue were added to each well in 384-well plates and incubated at 37° C. for 4 hours. The fluorescence intensity (FI) was measured using the Analyst HT plate reader (Molecular Devices) with an excitation at 545 nm and emission at 595 nm. The IC50 was calculated as the compound concentration that inhibits cell viability by 50% compared with vehicle control wells. The IC50 values were determined as described above.

[5] = MCF7, Table 2, values without asterisk, MCF-7 cells, 24 hours

Compound	IC50 [1]	IC50 [2]	IC50 [3, 5]	IC50 [4]	IC50 ([3]; MCF7, 24 h)
COc1cc(NC2=CC(=O)C(=O)c3ccccc32)cc(OC)c1 [Compound 54]	0.01 µM	4.17 µM	2.5 to 5 µM	7.46 µM	
COc1cc(NC2=CC(=O)C(=O)c3ccccc32)cc(OC)c1OC [Compound 60]	0.18 µM	8.58 µM		2.42 µM	
COc1ccc(NC2=CC(=O)C(=O)c3ccccc32)cc1 [Compound 51]	0.07 µM	3.62 µM		16 µM	1.25 to 2.5 µM
O=C1C=C(N2CCC(O)(c3ccc(Cl)cc3)CC2)c2ccccc2C1=O [Compound 58]	0.54 µM	1.68 µM		0.43 µM	
O=C1C=C(N2CCN(Cc3cccc(C(F)(F)F)c3)CC2)c2ccccc2C1=O [Compound 56]	0.53 µM	1.9 µM		0.3 µM	
COc1ccc(S(=O)(=O)N2CCN(C3=CC(=O)C(=O)c4ccccc43)CC2)cc1OC [Compound 64]	0.57 µM	29.1 µM		> 20 µM	
O=C1C=C(Nc2cc3c(cc2Br)OCO3)c2ccccc2C1=O [Compound 65]	0.53 µM	15.3 µM		3.66 µM	
CC(C)CN(CC(C)C)C1=CC(=O)C(=O)c2ccccc21 [Compound 49]	1.86 µM	18.6 µM	2.5 to 5 µM	2.75 µM	

Second part, led by results:

IC50 [1]	IC50 [2]	IC50 [3, 5]	IC50 [4]	Compound	IC50 ([3]; MCF7, 24 h)
0.09 µM	3.82 µM	1.25 to 2.5 µM	1.24 µM	COc1ccccc1NC1=CC(=O)C(=O)c2ccccc21 [Compound 50]	
0.61 µM	22.4 µM		10.9 µM	COc1cc(Br)c(NC2=CC(=O)C(=O)c3ccccc32)cc1OC [Compound 66]	
0.23 µM	2.22 µM	1.25 to 2.5 µM	0.95 µM	O=C1C=C(N2CCC(Cc3ccccc3)CC2)c2ccccc2C1=O [Compound 45]	
0.04 µM	3.76 µM	2.5 to 5 µM	3.17 µM	O=C1C=C(Nc2ccc3c(c2)OCO3)c2ccccc2C1=O [Compound 55]	
0.77 µM	4.27 µM		0.62 µM	O=C1C=C(N2CCN(Cc3cccc4ccccc34)CC2)c2ccccc2C1=O [Compound 59]	
1.55 µM	22.7 µM		> 20 µM	O=C1C=C(N2CCNCC2)c2ccccc2C1=O [Compound 62]	
0.64 µM	11.4 µM		0.21 µM	Cc1cc(C)nc(NC2=CC(=O)C(=O)c3ccccc32)c1 [Compound 67]	
0.39 µM	4.83 µM		3.18 µM	COc1ccc(NC2=CC(=O)C(=O)c3ccccc32)cc1OC [Compound 61]	
0.13 µM	3.94 µM	2.5 to 5 µM	1.42 µM	COc1ccc(NC2=CC(=O)C(=O)c3ccccc32)c(OC)c1 [Compound 53]	
